Laboratory results as given in patent US11725015B2, “Macrocyclic compound and uses thereof” (President and Fellows of Harvard College, priority 2017, dated 2023).

How the values were obtained:
[1] = tested on: OSC-19 subcutaneous xenograft; assay: Antitumor activity against OSC-19 subcutaneous xenograft model in mice as monotherapy; type: in vivo; settings: Q7D×2
Description: A human squamous cell carcinoma of the head and neck (SCCHN) cell line OSC-19, which had been cultured in an DMEM/Ham's F-12 (1:1) medium containing 10% FBS, and penicillin and streptomycin, was adjusted to a concentration of 1×10^8 cells/ml with PBS to prepare a cell suspension, and the suspension was mixed with Matrigel™ (BD Bioscience, #366237) in a ratio of 1:1 to prepare a cell suspension in a concentration of 5×10^7 cell/mL. The cell suspension was inoculated in a volume of 100 μL into a subcutaneous part of a right flank of nude mice, 5 weeks of ages (CAnN.Cg-Foxnlnu/CrlCrlj, female, Charles River Laboratories Japan, Inc.).
On the basis of the volumes of tumors obtained on the first day of administration, the mice were grouped such that averages of the tumor volumes were substantially equal among the groups. The experiment was conducted on groups each consisting of 6 mice. Test compound was dissolved in saline and intravenously administered at doses from 0.06 mg/kg to 0.18 mg/kg once a week for 2 weeks (Q7D×2 schedule).

[2] = tested on: MES-SA/Dx5-Rx1 (human uterine sarcoma, overexpress P-gp); assay: In vitro antiproliferative activity, MES-SA/Dx5-Rx1; type: cell-based; settings: MES-SA/Dx5-Rx1, 72 hours
Description: The in vitro antiproliferative assays for Compound (1) were conducted using a small panel of cancer cell lines including human squamous cell carcinoma of the esophagus (OE21, TE-8), human adenocarcinoma of the esophagus (OE33), and human uterine sarcoma (MES-SA, MES-SA-Dx5-Rx1). All cell lines were cultured in RPMI-1640 medium containing 10% FBS, and penicillin-streptomycin (culture medium), in a 5% CO2 incubator (37° C.). To each well of a 96 well plate (Becton, Dickinson and Company, 353219), 75 μL of cell suspension adjusted to a concentration of 4×10^4 cells/mL with the culture medium was added, and the cells were incubated overnight in a 5% CO2 incubator (37° C.). On the next day, 25 μL of Compound (1) in three-fold dilution series suspended in the culture medium was added to each well, and the resultant was incubated for 72 hours in a 5% CO2 incubator (37° C.). Then, cell viability was determined by CellTiter-Glo® Luminescent Cell Viability Assay (Promega) with 2013 EnVision™ Multilabel Reader (Perkin-Elmer, Wellesley, Mass.). Value of the wells containing cells without adding the test compounds was defined as 100% and the value of the wells containing no cells was defined as 0%. […] The P-gp susceptibility was calculated as the ratio of the IC50 value in MES-SA-Dx5-Rx1 cells, which overexpress P-gp, to the IC50 value in MES-SA cells.

[3] = tested on: CD31-positive vessel in the FaDu subcutaneous model; assay: Effect on CD31-positive vessel in the FaDu subcutaneous model in mice (Test Example 18); type: in vivo; settings: five days after
Description: A human squamous cell carcinoma of the head and neck (SCCHN) cell line FaDu, which had been cultured in an RPMI-1640 medium containing 10% FBS, and penicillin-streptomycin (culture medium), was adjusted to a concentration of 5×10^7 cells/mL with culture medium to prepare a cell suspension. The cell suspension was inoculated in a volume of 100 μL into a subcutaneous part of a right flank of nude mice, 6 weeks of ages (CAnN.Cg-Foxnlnu/CrlCrlj, female, Charles River Laboratories Japan, Inc.). Ten days after cell inoculation, the mice were grouped such that averages of the tumor volumes were substantially equal among the groups. The experiment was conducted on groups each consisting of 6 mice. Each test compound was dissolved in DMSO and a solution was stored in the freezer before use. Immediately before the administration, the stock solution was diluted with saline. The test compound in saline was intravenously administered at 20 μg/kg, […]. Five days after the single administration, tumor samples were collected and fixed with IHC Zinc Fixative (BD Pharmingen) at 4° C. for 24 hours. Paraffin-embedded tissues were sectioned (3 μm), mounted on positively charged slides, and air-dried. Immunohistochemical staining of CD31 was conducted using Ventana autostainer model Discover XT (Roche Diagnostics) according to the manufacture's protocol. Sections were deparaffinized, conditioned and the antigens were retrieved with CC1 (Ventana Medical Systems). […] The number of blood vessels in the whole tumor was quantified by counting the CD31-positive objects using inform 2 software (PerkinElmer Inc.) Area of the tumor region was measured by assessing the hematoxylin-staining area using inform 2 software (PerkinElmer Inc.) The number of blood vessels was normalized by the area of the tumor region. […] The ratios of blood vessel number in the test compound-dosing groups compared to non-treat group were calculated with the below formula: Tumor vessel ratio=blood vessel number of the test compound-dosing group/blood vessel number of the non-treat group)

[4] = tested on: human gastric cancer cell line MKN-28; assay: MKN-28 growth inhibition assay; type: cell-based; settings: 3 days incubation, CellTiter-Glo
Description: In this assay, the growth inhibitory activities of test compounds in human gastric cancer cell lines NCI-N87 and MKN-28 were measured, respectively. NCI-N87 and MKN-28 cells were maintained in RPMI-1640 medium containing 10% FBS, penicillin and streptomycin in a 5% CO2 incubator (37° C.). To each well of a 96-well plate (Becton, Dickinson and Company, 353219), 100 μL of NCI-N87 or MKN-28 cell suspension adjusted to a concentration of 3×10^4 cells/mL with the culture medium was added, and the cells were incubated overnight in a 5% CO2 incubator (37° C.). On the next day, 100 μL of Compound (1) or Halichondrin B in three-fold dilution series suspended in the culture medium was added to each well, and the resultant was incubated for 3 days in a 5% CO2 incubator (37° C.). Then, cell viability was determined by CellTiter-Glo® Luminescent Cell Viability Assay (Promega) with EnVision 2103 Multilabel Reader (Perkin-Elmer, Wellesley, Mass.). Value of the wells containing cells without adding the test compounds was defined as 100% and the value of the wells containing no cells was defined as 0%. The concentrations of the test compound necessary for inhibiting the cell growth by 50% (i.e., an IC50 value) were calculated and are shown in Table 14.

Structure (SMILES): C=C1C[C@@H]2CC[C@@]34C[C@H]5O[C@H]6[C@@H](O3)[C@H]3O[C@H](CC[C@@H]3O[C@H]6C5O4)CC(=O)O[C@@H]3[C@@H](C)[C@@H]4O[C@@H]5C[C@]6(C[C@@H]7O[C@]8(C[C@H](C)[C@@H]9O[C@H](CN)[C@H](O)C[C@@H]9O8)C[C@H](C)[C@@H]7O6)O[C@@H]5C[C@@H]4O[C@H]3C[C@H]3O[C@@H](CC[C@@H]1O2)C[C@@H](C)C3=C [Compound (1)]
- Tumor Regression (%) ([1]; 0.06 mg/kg intravenously): 59%
- Tumor Regression (%) ([1]; 0.18 mg/kg intravenously): 90%
- antiproliferative activity [2]: potent antiproliferative agent
- tumor blood vessel number ([3]; single administration 20 μg/kg): increased the tumor blood vessel number
- tumor blood vessel number ([3]; single administration 60 μg/kg): increased the tumor blood vessel number
- tumor blood vessel number ([3]; single administration 180 μg/kg): increased the tumor blood vessel number
- IC50 [4]: 0.015 nM

Structure (SMILES): C=C1C[C@@H]2CC[C@@]34C[C@H]5O[C@H]6[C@@H](O3)[C@H]3O[C@H](CC[C@@H]3O[C@H]6[C@H]5O4)CC(=O)O[C@@H]3[C@@H](C)[C@@H]4O[C@@H]5C[C@]6(C[C@@H]7O[C@]8(C[C@H](C)[C@@H]9O[C@H]([C@@H](O)C[C@@H](O)CO)C[C@@H]9O8)C[C@H](C)[C@@H]7O6)O[C@@H]5C[C@@H]4O[C@H]3C[C@H]3O[C@@H](CC[C@@H]1O2)C[C@@H](C)C3=C [Halichondrin B, reference compound]
- IC50 [4]: 0.017 nM
